The results in this text go back to ChEMBL document CHEMBL5236631, “Design, synthesis and biological evaluation of novel 3,4-dihydro-2H-[1,4]oxazino [2,3-f]quinazolin derivatives as EGFR-TKIs” (Bioorg Med Chem Lett, 2023).

In data set [1] the target is Epidermal growth factor receptor (Homo sapiens, UniProt P00533). Put plainly: Inhibition of wild type EGFR (unknown origin) autophosphorylation by Kinase-Glo luminescent assay. (Kinase-Glo measures the ATP left after a reaction by luminescence.)
The test system of another data set is NCI-H1975. Put plainly: Antiproliferative activity against human NCI-H1975 cells harboring T790M mutation assessed as inhibition of cell growth. In kind it is functional, cell-based.
Data set [2] can be described thus: Cytotoxicity against human 16HBE14o- cells assessed as inhibition of cell growth by MTT assay. It counts as toxicity, cell-based. (Formazan colour is commonly taken as a measure of viable cells.)
The subject of the next data set is NCI-H1563. Kind of data set: Antiproliferative activity against human NCI-H1563 cells assessed as inhibition of cell growth. It counts as functional, cell-based.

Epidermal growth factor receptor, sequence (P00533 whole entry): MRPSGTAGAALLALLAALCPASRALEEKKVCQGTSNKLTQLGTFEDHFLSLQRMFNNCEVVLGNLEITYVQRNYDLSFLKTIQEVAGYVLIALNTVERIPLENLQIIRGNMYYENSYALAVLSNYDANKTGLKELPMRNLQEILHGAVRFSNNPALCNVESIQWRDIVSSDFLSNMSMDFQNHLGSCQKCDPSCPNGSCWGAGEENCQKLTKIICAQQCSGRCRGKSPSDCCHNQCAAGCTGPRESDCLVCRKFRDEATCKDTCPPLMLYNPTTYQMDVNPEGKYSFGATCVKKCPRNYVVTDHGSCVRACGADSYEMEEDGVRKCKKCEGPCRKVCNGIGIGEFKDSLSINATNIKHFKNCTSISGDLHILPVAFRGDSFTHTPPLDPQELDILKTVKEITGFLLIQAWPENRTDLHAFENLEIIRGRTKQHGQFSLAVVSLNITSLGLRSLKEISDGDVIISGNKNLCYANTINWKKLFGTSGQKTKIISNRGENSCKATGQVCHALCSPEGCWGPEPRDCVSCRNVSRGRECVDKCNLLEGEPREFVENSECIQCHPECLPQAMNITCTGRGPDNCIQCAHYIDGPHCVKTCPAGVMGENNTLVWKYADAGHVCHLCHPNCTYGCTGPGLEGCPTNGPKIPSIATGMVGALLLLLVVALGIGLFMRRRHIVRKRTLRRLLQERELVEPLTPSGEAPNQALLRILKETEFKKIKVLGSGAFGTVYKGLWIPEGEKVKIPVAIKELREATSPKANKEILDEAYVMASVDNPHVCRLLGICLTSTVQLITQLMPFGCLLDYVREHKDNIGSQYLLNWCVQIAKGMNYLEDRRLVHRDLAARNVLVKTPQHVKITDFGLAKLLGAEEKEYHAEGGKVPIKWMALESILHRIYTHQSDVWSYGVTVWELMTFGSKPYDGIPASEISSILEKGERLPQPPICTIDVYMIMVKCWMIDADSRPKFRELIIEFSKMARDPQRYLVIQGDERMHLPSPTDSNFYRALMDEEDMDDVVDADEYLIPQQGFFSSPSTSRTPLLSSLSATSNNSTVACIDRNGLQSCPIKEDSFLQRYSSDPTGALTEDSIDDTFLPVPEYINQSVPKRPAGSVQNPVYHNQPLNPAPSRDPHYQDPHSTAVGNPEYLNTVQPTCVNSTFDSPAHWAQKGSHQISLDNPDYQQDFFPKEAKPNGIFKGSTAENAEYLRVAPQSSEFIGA

Usually IC50 stands for the concentration that gives 50% inhibition. Broadly, the CC50 is the concentration giving 50% cytotoxicity. For the compound `CN1CCN(CCC(=O)N2CCOc3c2ccc2ncnc(Nc4ccc(F)c(Cl)c4)c32)CC1`, the IC50 turned out to be 0.0257 µM in data set [1], 3.25 µM in the data set with NCI-H1975 and 10.6 µM in the data set on NCI-H1563. For the same compound, the CC50 in data set [2] worked out at 1.24 µM.
On the same counts, the results for `CC(=O)N1CCOc2c1ccc1ncnc(Nc3cccc(Br)c3)c21` are 0.0456 µM, over 40 µM, over 40 µM and 1.4 µM.
As to `COCCOc1cc2ncnc(Nc3cccc(Cl)c3)c2c2c1OC(COC)CO2` (stereo not given), the IC50 in data set [1] was found to be 0.0103 µM.
Take `FC(F)(F)c1cccc(Nc2ncnc3ccc4c(c23)OCCN4)c1`: the figures for the IC50 (in data set [1]; with NCI-H1975; with NCI-H1563) were 0.938 µM, 4.18 µM and over 40 µM, respectively.
On the same counts, the results for `CC(=O)N1CCOc2c1ccc1ncnc(Nc3cccc(C(F)(F)F)c3)c21` are 0.534 µM, over 40 µM and over 40 µM.
Regarding `CCC(=O)N1CCOc2c1ccc1ncnc(Nc3ccc(F)c(Cl)c3)c21`, the IC50 in data set [1] is 0.0706 µM; in the data set with NCI-H1975, over 40 µM; in the data set with NCI-H1563, over 40 µM.
For `CN1CCN(CCC(=O)N2CCOc3c2ccc2ncnc(Nc4cccc(C(F)(F)F)c4)c32)CC1`, the IC50 was determined as 0.148 µM in data set [1], 4.37 µM with NCI-H1975 and 21.2 µM in the data set on NCI-H1563.
For `CCC(=O)N1CCOc2c1ccc1ncnc(Nc3cccc(Br)c3)c21`, the IC50 was determined as 0.0703 µM in data set [1], 3.6 µM with NCI-H1975 and 24.8 µM in the data set with NCI-H1563. Also, in data set [2], the CC50 was 1.25 µM.
Consider `CCC(=O)N1CCOc2c1ccc1ncnc(Nc3cccc(C(F)(F)F)c3)c21`, for which the results for the IC50 (in data set [1]; with NCI-H1975; in the data set with NCI-H1563) were 0.838 µM, over 40 µM and over 40 µM, respectively.
Regarding `CC(=O)N1CCOc2c1ccc1ncnc(Nc3ccc(F)c(Cl)c3)c21`, the figures for the IC50 (in data set [1]; in the data set with NCI-H1975; in the data set with NCI-H1563) were 0.0472 µM, over 40 µM and over 40 µM, respectively.
As for `Fc1ccc(Nc2ncnc3ccc4c(c23)OCCN4)cc1Cl`, the IC50 was 0.0873 µM in data set [1], 1.6 µM in the data set on NCI-H1975 and under 1.25 µM in the data set on NCI-H1563. Moreover, the cytotoxic concentration (CC50) in data set [2] is 0.13 µM.
Turning to `C#Cc1cccc(Nc2ncnc3cc(OCCOC)c(OCCOC)cc23)c1` [ERLOTINIB], the results for the IC50 with NCI-H1975 and with NCI-H1563 were 4.67 µM and 8.17 µM, respectively. For the same compound, in data set [2], the CC50 is 1.32 µM.
In the case of `Brc1cccc(Nc2ncnc3ccc4c(c23)OCCN4)c1`, the IC50 in data set [1] was 0.12 µM; in the data set with NCI-H1975 it was 15.6 µM; in the data set on NCI-H1563 it was under 1.25 µM.
As to `CN1CCN(CCC(=O)N2CCOc3c2ccc2ncnc(Nc4cccc(Br)c4)c32)CC1`, the IC50 came out at 0.0407 µM in data set [1], 4.16 µM with NCI-H1975 and 12.5 µM in the data set on NCI-H1563. Moreover, the CC50 in data set [2] came out at 1.35 µM.
